Source: patent EP4553077A1 (Kinoteck Therapeutics Co., Ltd, priority 2022, dated 2024)

Key:
CYP3A4 = CYP3A4 (Homo sapiens, UniProt P08684); assay: Cytochrome P450 inhibition in human liver microsomes
Protocol: (§1) Preparation of positive control inhibitor and compound working solution: 16 µL inhibitor stock solution or compound stock solution for each CYP subtype were taken and added to 24 µL DMSO. Then, they were diluted gradually three times with diluent to obtain different concentrations of test sample/positive control inhibitor working solution (7 concentrations each except for blank)
(§2) Preparation of liver microsomal working solution: 300 µL human liver microsomes (20.0 mg/mL) was taken and added to 29700 µL PBS and mixed well, and the concentration of the prepared human liver microsomal working solution was 0.200 mg/mL.
(§3) Preparation of 4 x NADPH working solution: A certain weight of NADPH tetrasodium salt was weighted and dissolved to a suitable volume of PBS to obtain NADPH working solution, with a concentration of 8.00 mM.
(§4) Preparation of test sample group working solution: The human liver microsomal working solution was divided into 96 well plates at 796 µL per well, and then 4 µL test sample working solution was added.
(§5) Preparation of positive control group working solution: The human liver microsomal working solution was divided into 96 well plates at 199 µL per well, and then 1 µL positive control inhibitor working solution was added.
(§6) Blank solvent working solution preparation: The human liver microsomal working solution was divided into 96 well plates at 199 µL per well, and then 1 µL DMSO was added.
(§7) (a) 30 µL test sample/positive control inhibitor working solution or 30 µL blank solvent working solution per well were transferred into a 96 well plate, and 15 µL substrate working solution of different enzyme subtypes transferred into each well, and mixed evenly. (b) The above incubation plates and 4 x NADPH working solution were preheated at 37 °C for 5 min. (c) 15 µL preheated 4 × NADPH working solution per well was transferred into the incubation plate, and the reaction initiated, and continued to be incubated at 37 °C. The incubation time is as follows:
(§8) (d) After the reaction time was reached, 180 µL termination solution was added to terminate the reaction. […] (f) After centrifugation, 80 µL supernatant was taken and added to 120 µL ultrapure water, and after it was mixed evenly, LC-MS/MS was used to analyze the metabolites of the probe substrate.

CYP2C19 = CYP2C19 (Homo sapiens, UniProt P33261); assay: as above
Protocol: as §1, §4, §5, §6
(§9) (a) 30 µL test sample/positive control inhibitor working solution or 30 µL blank solvent working solution per well were transferred into a 96 well plate, and 15 µL substrate working solution of different enzyme subtypes transferred into each well, and mixed evenly. (b) The above incubation plates and 4 x NADPH working solution were preheated at 37 °C for 5 min. (c) 15 µL preheated 4 × NADPH working solution per well was transferred into the incubation plate, and the reaction initiated, and continued to be incubated at 37 °C.
as §8

CYP2D6 = CYP2D6 (Homo sapiens, UniProt P10635); assay: as above
Protocol: as §1, §2, §3, §4, §5, §6, §7, §8

hERG = hERG (Homo sapiens, UniProt Q12809); assay: Manual patch clamp, hERG channel current in HEK-293 cells
Protocol: The test compound diluents were diluted with extracellular fluid containing 0.5% F68 in sequence to prepare working solutions of 30 µM, 10 µM, 3 µM, 1 µM and 0.3 µM, and 0.3% DMSO was ensured.
The test compound diluents were diluted with extracellular fluid containing 0.5% F68 in sequence to prepare working solutions with concentrations of 30 µM, 10 µM, 3 µM, 1 µM and 0.3 µM, and 0.3% DMSO was ensured.
Cells were inoculated into 6 cm cell culture dishes, with a total of 2.5 × 10^5 cells per dish (final volume: 5 mL). To maintain the electrophysiological activity of cells, the cell density must not exceed 80%.
The voltage stimulation protocol for recording hERG currents using whole cell patch clamp was as follows: when a whole cell seal was formed, the cell membrane voltage was clamped at -80 mV. […] Data was collected repeatedly every 10 s to observe the effect of the drug on hERG tail current. The experimental data was collected by IPA amplifier (Sutter Instrument) and stored in SutterPatch (with Igor Pro) software.
When the hERG current recorded by the whole cell was stabilized, administration began, and each drug concentration acted for about 5 min (or until the current was stabilized), and then the next concentration was detected, multiple concentrations were detected for each test compound. The cover glass covered with cells was placed in the recording bath under an inverted microscope, the blank control solution and the test compound working solution sequentially flowed through the recording bath from low concentration to high concentration using gravity perfusion to act on the cells, liquid exchange was performed using a peristaltic pump during recording. The current of each cell detected in the extracellular fluid without the compound serves as its own control group. Each concentration should be independently tested twice using at least two cells. All electrophysiological tests were performed at room temperature.

CYP1A2 = molecular target: T1, CYP1A2 (Homo sapiens, UniProt P05177); assay: Cytochrome P450 inhibition in human liver microsomes
T1 sequence (P05177 1-516): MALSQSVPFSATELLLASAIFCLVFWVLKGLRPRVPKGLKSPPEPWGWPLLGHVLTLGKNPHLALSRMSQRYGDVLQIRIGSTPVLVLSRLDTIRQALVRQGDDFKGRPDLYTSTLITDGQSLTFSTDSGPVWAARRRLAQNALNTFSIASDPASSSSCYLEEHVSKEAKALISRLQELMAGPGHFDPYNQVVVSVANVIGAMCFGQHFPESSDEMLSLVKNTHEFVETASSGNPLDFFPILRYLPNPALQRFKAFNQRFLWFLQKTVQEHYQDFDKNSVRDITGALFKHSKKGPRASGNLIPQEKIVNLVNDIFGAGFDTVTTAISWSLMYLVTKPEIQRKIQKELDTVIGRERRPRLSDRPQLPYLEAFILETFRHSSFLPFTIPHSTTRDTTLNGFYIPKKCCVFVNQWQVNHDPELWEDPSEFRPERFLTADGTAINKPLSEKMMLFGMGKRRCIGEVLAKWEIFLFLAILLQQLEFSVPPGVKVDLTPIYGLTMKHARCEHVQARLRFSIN
Protocol: as §1, §4, §5, §6, §9, §8

Ba/F3-TEL-FGFR1 = Ba/F3-TEL-FGFR1 (Homo sapiens, UniProt P11362+P41212); assay: Cell viability (proliferation inhibition) of Ba/F3 cells, CellTiter Glo; conditions: read-out: Ba/F3 cell FGFR1 (IC50 nM), 72 h
Ba/F3-TEL-FGFR1, sequence (P11362 478-767 limits assumed, one chain of several): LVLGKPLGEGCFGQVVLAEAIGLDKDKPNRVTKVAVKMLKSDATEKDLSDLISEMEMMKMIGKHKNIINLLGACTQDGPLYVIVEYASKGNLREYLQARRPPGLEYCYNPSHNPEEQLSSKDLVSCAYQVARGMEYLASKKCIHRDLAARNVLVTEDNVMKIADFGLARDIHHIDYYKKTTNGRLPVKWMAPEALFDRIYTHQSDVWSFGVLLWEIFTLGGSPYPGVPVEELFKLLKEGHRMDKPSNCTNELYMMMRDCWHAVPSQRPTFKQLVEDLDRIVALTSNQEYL

CYP2C9 = CYP2C9 (Homo sapiens, UniProt P11712); assay: Cytochrome P450 inhibition in human liver microsomes
CYP2C9, sequence (P11712 whole entry): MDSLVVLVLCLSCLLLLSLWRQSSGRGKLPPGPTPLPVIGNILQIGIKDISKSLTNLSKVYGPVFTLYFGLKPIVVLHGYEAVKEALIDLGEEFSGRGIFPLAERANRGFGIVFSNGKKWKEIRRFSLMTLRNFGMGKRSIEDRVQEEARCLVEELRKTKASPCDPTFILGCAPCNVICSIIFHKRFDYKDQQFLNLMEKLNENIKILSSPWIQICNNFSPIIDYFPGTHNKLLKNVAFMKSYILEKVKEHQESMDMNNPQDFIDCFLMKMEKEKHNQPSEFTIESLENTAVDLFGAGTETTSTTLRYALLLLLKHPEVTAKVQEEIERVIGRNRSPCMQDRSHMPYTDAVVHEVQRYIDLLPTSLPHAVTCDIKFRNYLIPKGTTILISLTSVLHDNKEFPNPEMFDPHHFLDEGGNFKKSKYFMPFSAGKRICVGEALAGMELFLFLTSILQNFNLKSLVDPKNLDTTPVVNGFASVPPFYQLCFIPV
Protocol: as §1, §4, §5, §6, §9, §8

Ba/F3-TEL-FGFR2 = Ba/F3-TEL-FGFR2 (Homo sapiens, UniProt P21802+P41212); assay: Cell viability (proliferation inhibition) of Ba/F3 cells, CellTiter Glo; conditions: read-out: Ba/F3 cell FGFR2 (IC50 nM), 72 h
Ba/F3-TEL-FGFR2, sequence (P21802 481-770 limits assumed, one chain of several): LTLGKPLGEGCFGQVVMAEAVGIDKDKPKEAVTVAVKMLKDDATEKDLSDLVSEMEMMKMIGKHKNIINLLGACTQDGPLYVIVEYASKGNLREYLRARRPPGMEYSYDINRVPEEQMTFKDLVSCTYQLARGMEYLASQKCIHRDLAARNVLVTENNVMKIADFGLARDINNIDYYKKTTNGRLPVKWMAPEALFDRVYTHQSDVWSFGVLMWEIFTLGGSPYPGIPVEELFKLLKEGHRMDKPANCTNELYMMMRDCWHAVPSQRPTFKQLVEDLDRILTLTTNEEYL

[1] = Pharmacokinetic test in rats; type: in vivo, male SD rats; conditions: rat, plasma, oral gavage administration, 10 mg/kg
Method in brief: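 Male SD rats (180-220 g, fasted overnight, n=3 per route) received 10 mg/kg by oral gavage or 1 mg/kg intravenously. Plasma was sampled from 5 min to 24 h post-dose and analysed by LC-MS/MS after protein precipitation. Parameters came from non-compartmental analysis.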

[2] = Rat liver cells metabolic stability; type: in vitro ADME; conditions: rat liver cells 0.5 × 10^6 cells/mL
Protocol: Test compound and control drug verapamil powder were prepared into […] stock solution using DMSO, and they were diluted with 50% acetonitrile/50% water to 100 µM working solution before use.
• 1) 49.5 mL Williams E Medium and 0.5 mL glutaMAX were mixed as incubation medium. The liver cell resuscitation solution and incubation solution were preheated in a 37 °C water bath for at least 15 min before use. • 2) A tube of liver cells stored at ultra-low temperature was taken and ensured that they remain in a low-temperature frozen state before resuscitation. The liver cells were placed quickly in a 37 °C water bath and shaken gently until all ice crystals were dispersed. • 3) The contents of the liver cells tubes were poured into a centrifuge tube containing 50 mL of resuscitation medium, and they were centrifuged at 100 g for 10 min. After centrifugation, the resuscitation medium was aspirated, and sufficient incubation medium was added to obtain a cell suspension with a cell density of approximately 1.0 × 10^6 cells/mL. • 4) AO/PI staining was used to count liver cells and determine viable cell density, the survival rate of liver cells must be greater than 75%. The liver cell suspension was diluted with incubation medium to a viable cell density of 0.5 × 10^6 cells/mL.
• 1) 198 µL live cell suspension was transferred to a 96 well deep well plate, and the deep well plate was placed on a vortex and preheat in the incubator for 10 min. • 2) 2 µL 100 µM test compound or positive control compound was added to each well for reaction initiation, and the deep well plate was placed back on the incubator vortex. • 3) The incubation plate was placed into the incubator for incubation. 25 µL suspension was taken at 0.5, 15, 30, 60, 90, and 120 min, and 6-fold (150 µL) acetonitrile containing internal standard quencher (100 nM alprazolam, 200 nM caffeine, and 100 nM toluenesulfonylbutamide) was added to a new 96 well plate to terminate the reaction. The plate was vortexed for 5 min and centrifuged at 3220 rpm and 4 °C for 45 min to precipitate the protein. 100 µL of supernatant was transferred to the sample plate, and 100 µL pure water was added and mixed well for UPLC-MS/MS analysis. All incubation systems were conducted in a dual parallel manner.
All data was calculated using Microsoft Excel software. Peak area was detected by extracting ion chromatogram. In vitro half-life (T1/2) and in vitro clearance rate (in µL/min/10^6 cells) of the parent drug were detected by linearly fitting of the natural logarithm of the […] percentage of the parent drug versus time. Table 6 Results of rat liver cell stability test

hERG, sequence (Q12809 whole entry): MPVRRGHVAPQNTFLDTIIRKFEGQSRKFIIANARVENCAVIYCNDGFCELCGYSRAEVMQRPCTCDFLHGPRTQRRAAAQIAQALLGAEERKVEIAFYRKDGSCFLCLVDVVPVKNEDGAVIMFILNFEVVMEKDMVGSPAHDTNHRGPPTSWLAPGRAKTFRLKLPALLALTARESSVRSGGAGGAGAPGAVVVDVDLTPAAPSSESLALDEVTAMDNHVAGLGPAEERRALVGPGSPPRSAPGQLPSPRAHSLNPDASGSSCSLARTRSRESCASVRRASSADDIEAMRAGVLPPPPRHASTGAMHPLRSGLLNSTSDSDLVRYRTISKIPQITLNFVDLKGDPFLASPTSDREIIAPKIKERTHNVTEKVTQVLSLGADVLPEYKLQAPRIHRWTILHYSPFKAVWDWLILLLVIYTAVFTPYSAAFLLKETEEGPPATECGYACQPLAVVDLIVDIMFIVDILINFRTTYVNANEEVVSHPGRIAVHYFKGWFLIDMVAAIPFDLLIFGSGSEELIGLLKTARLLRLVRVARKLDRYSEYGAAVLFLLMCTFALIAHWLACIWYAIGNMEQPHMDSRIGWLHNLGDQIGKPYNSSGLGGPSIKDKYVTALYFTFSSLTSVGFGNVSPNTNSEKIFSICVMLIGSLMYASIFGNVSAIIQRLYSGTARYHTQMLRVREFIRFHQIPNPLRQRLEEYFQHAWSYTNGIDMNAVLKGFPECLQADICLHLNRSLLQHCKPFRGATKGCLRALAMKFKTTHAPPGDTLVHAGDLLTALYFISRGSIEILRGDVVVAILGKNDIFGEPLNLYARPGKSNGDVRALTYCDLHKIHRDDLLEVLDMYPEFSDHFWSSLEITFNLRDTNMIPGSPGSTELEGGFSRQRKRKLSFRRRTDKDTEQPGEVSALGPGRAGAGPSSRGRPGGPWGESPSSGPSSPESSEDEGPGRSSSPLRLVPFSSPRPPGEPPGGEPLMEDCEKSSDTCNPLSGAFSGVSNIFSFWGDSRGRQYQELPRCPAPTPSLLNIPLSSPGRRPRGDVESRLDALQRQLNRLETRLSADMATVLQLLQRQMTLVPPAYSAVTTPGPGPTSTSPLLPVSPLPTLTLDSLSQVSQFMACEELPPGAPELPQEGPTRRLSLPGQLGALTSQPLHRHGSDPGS
CYP2C19, sequence (P33261 whole entry): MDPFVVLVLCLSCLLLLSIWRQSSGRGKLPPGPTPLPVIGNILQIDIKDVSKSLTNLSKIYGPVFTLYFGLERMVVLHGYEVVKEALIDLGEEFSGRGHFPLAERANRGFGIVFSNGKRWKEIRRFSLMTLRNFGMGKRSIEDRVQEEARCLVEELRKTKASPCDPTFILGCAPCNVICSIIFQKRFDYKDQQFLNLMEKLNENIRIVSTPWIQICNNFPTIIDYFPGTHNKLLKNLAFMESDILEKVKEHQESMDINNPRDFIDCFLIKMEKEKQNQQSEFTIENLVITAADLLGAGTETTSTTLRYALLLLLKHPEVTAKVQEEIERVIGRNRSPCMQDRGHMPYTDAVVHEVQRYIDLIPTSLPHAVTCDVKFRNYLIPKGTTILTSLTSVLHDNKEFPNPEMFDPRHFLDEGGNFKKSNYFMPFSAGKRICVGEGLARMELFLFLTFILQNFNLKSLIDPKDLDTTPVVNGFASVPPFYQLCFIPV
CYP3A4, sequence (P08684 whole entry): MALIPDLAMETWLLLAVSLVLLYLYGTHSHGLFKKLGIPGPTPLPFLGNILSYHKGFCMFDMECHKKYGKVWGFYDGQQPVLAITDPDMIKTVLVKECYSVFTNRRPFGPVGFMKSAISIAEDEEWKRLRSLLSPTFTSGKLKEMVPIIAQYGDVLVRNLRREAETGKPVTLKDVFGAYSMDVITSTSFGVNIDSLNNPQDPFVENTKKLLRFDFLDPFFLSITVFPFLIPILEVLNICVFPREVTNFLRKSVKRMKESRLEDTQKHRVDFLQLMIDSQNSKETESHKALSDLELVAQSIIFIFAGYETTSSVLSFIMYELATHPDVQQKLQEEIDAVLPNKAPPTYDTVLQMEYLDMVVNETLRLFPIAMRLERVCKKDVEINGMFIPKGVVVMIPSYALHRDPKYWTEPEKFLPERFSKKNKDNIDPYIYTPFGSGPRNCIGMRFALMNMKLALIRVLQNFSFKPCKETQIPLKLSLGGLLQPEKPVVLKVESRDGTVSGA
CYP2D6, sequence (P10635 whole entry): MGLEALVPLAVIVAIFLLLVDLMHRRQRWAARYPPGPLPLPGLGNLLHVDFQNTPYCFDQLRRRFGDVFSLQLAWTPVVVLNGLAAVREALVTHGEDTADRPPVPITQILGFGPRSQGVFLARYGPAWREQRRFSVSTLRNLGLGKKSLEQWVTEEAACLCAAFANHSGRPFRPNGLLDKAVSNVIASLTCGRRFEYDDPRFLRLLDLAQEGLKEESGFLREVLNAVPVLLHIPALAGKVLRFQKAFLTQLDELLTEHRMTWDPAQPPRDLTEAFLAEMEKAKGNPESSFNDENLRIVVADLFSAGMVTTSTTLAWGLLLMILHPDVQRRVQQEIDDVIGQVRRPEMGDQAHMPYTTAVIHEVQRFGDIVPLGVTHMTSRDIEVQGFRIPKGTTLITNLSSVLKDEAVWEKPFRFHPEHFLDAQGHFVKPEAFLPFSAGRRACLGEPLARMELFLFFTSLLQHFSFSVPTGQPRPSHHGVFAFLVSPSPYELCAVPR

## C=C(C)C(=O)Nc1ccc(-c2c(-c3ccc(N=S4(=O)CCCC4)cc3)c3c(N)ncnc3n2C)c(F)c1 [Compound 24]
CYP3A4
  IC50: 10.7 µM
CYP2C19
  IC50: 19.4 µM
CYP2D6
  IC50: 14.3 µM
hERG
  IC50: > 10 µM
hERG; human, hek-293 cells
  inhibition at 0.3 µM: -1.24%
  inhibition at 1 µM: 7.73%
  inhibition at 3 µM: 10.2%
  inhibition at 10 µM: 32.2%
  inhibition at 30 µM: 14.2%
CYP1A2
  IC50: > 10 µM
Ba/F3-TEL-FGFR1
  IC50: 1910 nM
CYP2C9
  IC50: 29 µM
Ba/F3-TEL-FGFR2
  IC50: 2.1 nM
[1]
  AUC(0-t): 871 ng·h/mL
  Cmax: 270 ng/mL
  Tmax: 15 min
  half-life: 85.8 min
[2]; hepatocytes, read-out: in vitro CLint (µL/min/10^6 cells)
  hepatocyte CLint: 37.1 µL/min/1e6 cells
[2]; hepatocytes, read-out: in vitro t1/2
  half-life: 37.3 min
[2]; 60 min
  Remaining percentage of compound after 60 min of incubation (%): 37.55%
